Reference: patent US20070037887A1, “Blockade of mtor to prevent a hormonal adaptive response” (University of Virginia Patent Foundation, priority 2003, published 2007)

Legend:
mTOR-mLST8 [1] = target: T1, mTOR-mLST8 (Homo sapiens, UniProt P42345+Q9BVC4); test: Coimmunoprecipitation of mLST8 with mTOR from 293T cells incubated with compound; assay type: cell-based; conditions: nontransfected 293T cells; much less pronounced than effect on raptor
T1 construct: expressed in transfected cells; host or cells: 293T
T1 sequence (Q9BVC4 whole entry, other chains not shown): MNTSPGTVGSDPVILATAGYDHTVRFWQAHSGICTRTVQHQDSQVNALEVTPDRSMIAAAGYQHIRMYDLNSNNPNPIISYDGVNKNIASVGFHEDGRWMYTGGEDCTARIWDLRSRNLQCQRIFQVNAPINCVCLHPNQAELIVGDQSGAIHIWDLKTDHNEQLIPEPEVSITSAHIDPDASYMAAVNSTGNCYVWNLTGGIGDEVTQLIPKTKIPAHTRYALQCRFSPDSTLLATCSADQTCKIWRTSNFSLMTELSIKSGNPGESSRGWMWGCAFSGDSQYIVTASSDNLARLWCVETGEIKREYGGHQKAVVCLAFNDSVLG
Procedure: FIG. 11A & 11B represent data showing FTS inhibits PHAS-I phosphorylation and promotes dissociation of the mTOR-raptor complex in 293T cells. 293T cells were transfected with pcDNA3AU1-mTOR, pcDNA33HARaptor, pcDNA33HA-mLST8, and pCMV-Tag3APHAS-I (FIG. 11A). After 18 h the cells were incubated for 1 h with increasing concentrations of FTS before extracts were prepared. A sample of each extract was subjected to SDS-PAGE and immunoblotted to detect PHAS-I or PThr^36/45. AU1-mTOR was also immunoprecipitated from each extract, and immune complexes were subjected to SDSPAGE and immunoblotted with mTAb2, to detect mTOR, and with anti-HA antibodies, to detect HA-mLST8 and HA-raptor. Nontransfected 293T cells were incubated with increasing concentrations of FTS for 1 h before extracts were prepared. mTOR was immunoprecipitated with mTAb1, and samples were subjected to SDS-PAGE.
FIGS. 12A & 12B represent data showing the effects of incubating cells with increasing concentrations of FTS and GTS on mTOR activity and mTOR association with raptor and mLST8. AU1-mTOR, HA-raptor, and HAmLST8 were overexpressed in 293T cells. The cells were then incubated for 1 h with increasing concentrations of FTS (●, ▴, ▪) or GTS (∘, Δ, □) before extracts were prepared. Immunoprecipitations were then conducted with anti-AU1 antibodies. mTOR kinase activity (●, ∘) was determined by measuring ^32P incorporation into [His^6]PHAS-I in immune complex kinases assays performed with [γ-^32P]ATP. The relative amounts of HA-raptor (▴, Δ) and HA-mLST8 (▪, □) that coimmunoprecipitated with AU1-mTOR were determined after immunoblotting with anti-HA antibodies. The results (mean values±S.E. from 3 experiments) are expressed as percentages of the mTOR activity (FIG. 12A) or coimmunoprecipitating proteins (FIG. 12B) from samples incubated without FTS or GTS, and have been corrected for the amounts of AU1-mTOR immunoprecipitated.
To investigate further the inhibitory effects of FTS on mTOR signaling, the effect of the drug on the association of mTOR, raptor, and mLST8 was determined. […]

mTOR-mLST8 [2] = test: Coimmunoprecipitation of mLST8 with mTOR, compound added to cell extracts; assay type: binding; conditions: only at the highest concentrations investigated
Procedure: FIGS. 13A & 13B represent data showing FTS promotes raptor dissociation and inhibits mTOR activity in cell extracts. 293T cells were transfected with pcDNA3 alone (Vec.) or with a combination of pcDNA3AU1-mTOR, pcDNA33HA-Raptor, and pcDNA33HA-mLST8. Extracts of the cells were incubated with increasing concentrations of FTS before AU1-mTOR was immunoprecipated. Samples of the immune complexes were incubated with [γ-^32P]ATP and recombinant [His^6]PHAS-I, then subjected to SDS-PAGE and transferred to an immobilon membrane. After obtaining a phosphorimage of the membrane to detect ^32P-PHAS-I, the membrane was immunoblotted with PThr^36/45 antibodies. […]
FIGS. 14A & 14B represent data showing the relative effects of increasing concentrations of FTS and GTS on mTOR activity and the association of mTOR and raptor. Samples of extracts from 293T cells overexpressing AU1-mTOR, HA-raptor, and HA-mLST8 were incubated for 1 h with increasing concentrations of FTS (●, ▴, ▪) or GTS (∘, Δ, □) before immunoprecipitations were conducted with anti-AU1 antibodies. mTOR kinase activity (●, ∘) was determined by measuring ^32P incorporation into [His^6]PHAS-I in immune complex kinases assays performed with [γ-^32P]ATP (see FIG. 14A). The relative amounts of HA-raptor (▴, Δ) and HA-mLST8 (▪, □) that coimmunoprecipitated with AU1-mTOR were determined after immunoblotting with anti-HA antibodies (see FIG. 14B). […]

CC(C)=CCC/C(C)=C/CC/C(C)=C/CSc1ccccc1C(=O)O [FTS, farnesylthiosalicylic acid]
amount of endogenous mLST8 that coimmunoprecipitated with mTOR (mTOR-mLST8 [1]): also decreased
amounts of transfected and endogenous mLST8 that coimmunoprecipitated with mTOR (mTOR-mLST8 [2]): modestly decreased
